Patent US8569372B2, “Method for preventing or treating a disease, disorder or condition induced by retina ischemia” (priority 2011, dated 2013)

Experiments:
Format in all cases: in vivo, Wistar rats
[1] = system: ischaemic retina (HIOP induced retinal ischaemia/reperfusion); experiment: Flash ERG b-wave after high IOP induced retinal ischaemia/reperfusion, intravitreous pre-treatment; details: for ERG b-wave ratio (ischaemic eye vs. fellow normal eye): n=6; for pre-ischaemia b-wave ratio baseline (day 0): day 0 baseline
Protocol: All investigations involving the use of animals conformed to the Association for Research in Vision and Ophthalmology Statement for the Use of Animals in Ophthalmology and Vision Research and were approved by the Institutional Review Board of Cheng Hsin General Hospital (Taipei, Taiwan). The six-week-old Wistar rats were kept in an animal house where the humidity was 40-60% and the temperature 19-23° C. They were kept on a 12-hour light/dark cycle with 12 to 15 air changes/hour. The animals were provided with food and water ad libitum.
The rats (200-250 g) were anaesthetized and placed in a stereotaxic frame. The anterior chamber of one eye was cannulated with a 30-gauge needle connected to a 0.9% saline reservoir; this caused a high IOP (HIOP) of 120 mmHg for 60 minutes. Eye fundus whitening and a low ERG response confirmed induction of an ischaemic insult. A sham procedure was carried out on the controls.
(§1) Drug administration involved the pre-administration (15-minute before 60-minute HIOP induced retinal ischaemia) of SAC (25, 50, 100 μM) or vehicle (saline; control). The ischemic eye of each test rat was treated with or without a single intravitreous injection of 5 μl of the test compound. In addition, SAC (100 μM) was administered to the non-ischaemic eye (normal) to see whether SAC has any adverse effects. In both cases, the paired normal eye was untreated.
(§2) Flash ERG recordings were performed on all rats before retinal ischaemia (day 0), as well as at 1, 3, 5, and 7 days after ischaemia and treatment with or without the defined chemicals. The animals were dark adapted and anaesthetized to do this. A strobe was placed 2 cm in front of the animal to provide a stimulus of 0.5 Hz. Fifteen consecutive responses were recorded at two-second intervals and at 10 kHz; the responses were amplified and averaged using an amplifier P511/regulated power supply RPS 107/stimulator PS22 (Grass-Telefactor; Astro-Med Inc., West Warwick, R.I., USA). For comparative purposes, the b-wave ratio, namely the b-wave amplitude of the ischaemic/sham-operation eye or the untreated/SAC-treated non-ischaemic (normal) eye as compared with that of the contralateral normal eye, was calculated.

[2] = system: non-ischaemic (normal) eye; experiment: Flash ERG b-wave of the non-ischaemic (normal) eye given SAC (adverse effects); details: 100 μM SAC, n=3
Protocol: as §1, §2

Thy-1 mRNA = experiment: Real-time PCR of retinal mRNA after ischaemia/reperfusion: Thy-1; details: 100 μM SAC pre-treatment, 24 hours after I/R; control 3.28±1.09, vehicle 0.29±0.07; n=6
Protocol: (§3) The rats (200-250 g) were anaesthetized and placed in a stereotaxic frame. The anterior chamber of one eye was cannulated with a 30-gauge needle connected to a 0.9% saline reservoir; this caused a high IOP (HIOP) of 120 mmHg for 60 minutes. Eye fundus whitening and a low ERG response confirmed induction of an ischaemic insult. A sham procedure was carried out on the controls. Drug administration involved the pre-administration (15-minute before 60-minute HIOP induced retinal ischaemia) of SAC (25, 50, 100 μM) or vehicle (saline; control). The ischemic eye of each test rat was treated with or without a single intravitreous injection of 5 μl of the test compound. […] The levels of Thy-1, HIF-1 Alpha, VEGF and MMP-9 mRNAs present in the retinas were determined using a real-time PCR technique. […] Relative quantification (a comparative method) was performed using the house keeping gene Beta-actin as the internal standard. This process allows the normalized quantification of the mRNA target (Ct) and takes into account the differences in the amount of total RNA added to each reaction (ΔCt). The relative HIF-1 Alpha/VEGF/MMP-9 expression changes were calculated as fold changes relative to the control with respect to the calibrator (ΔΔCt), which was represented by the control retina. […] The data obtained for each treatment were pooled, and a total percentage change relative to the control was calculated. […]

HIF-1 Alpha mRNA = experiment: Real-time PCR of retinal mRNA after ischaemia/reperfusion: HIF-1 Alpha; details: 100 μM SAC pre-treatment, 24 hours after I/R; control 0.56±0.15, vehicle 1.23±0.23; n=6
Protocol: as §3

VEGF mRNA = experiment: Real-time PCR of retinal mRNA after ischaemia/reperfusion: VEGF; details: 100 μM SAC pre-treatment, 24 hours after I/R; control 0.36±0.07, vehicle 1.10±0.20; n=6
Protocol: as §3

C=CCSC[C@H](N)C(=O)O [SAC, S-allyl L-cysteine]
ERG b-wave ratio (ischaemic eye vs. fellow normal eye) ([1]; 25 μM SAC, day 1 after I/R, vehicle 0.19±0.03): 0.47±0.10
ERG b-wave ratio (ischaemic eye vs. fellow normal eye) ([1]; 25 μM SAC, day 3 after I/R, vehicle 0.18±0.05): 0.44±0.11
ERG b-wave ratio (ischaemic eye vs. fellow normal eye) ([1]; 25 μM SAC, day 5 after I/R, vehicle 0.24±0.05): 0.54±0.09
ERG b-wave ratio (ischaemic eye vs. fellow normal eye) ([1]; 25 μM SAC, day 7 after I/R, vehicle 0.18±0.02): 0.55±0.06
ERG b-wave ratio (ischaemic eye vs. fellow normal eye) ([1]; 50 μM SAC, day 1 after I/R, vehicle 0.19±0.03): 0.56±0.03
ERG b-wave ratio (ischaemic eye vs. fellow normal eye) ([1]; 50 μM SAC, day 3 after I/R, vehicle 0.18±0.05): 0.60±0.05
ERG b-wave ratio (ischaemic eye vs. fellow normal eye) ([1]; 50 μM SAC, day 5 after I/R, vehicle 0.24±0.05): 0.65±0.02
ERG b-wave ratio (ischaemic eye vs. fellow normal eye) ([1]; 50 μM SAC, day 7 after I/R, vehicle 0.18±0.02): 0.61±0.05
ERG b-wave amplitude ([1]; 100 μM SAC intravitreous pre-treatment, 1 day after I/R, sham control 0.35 mV, vehicle 0.08 mV): 0.24 mV
ERG b-wave amplitude, % of the control value ([1]; 100 μM SAC pre-treatment, 1 day after I/R, vehicle 22.86%): 68.57 % of the control value
ERG b-wave ratio (ischaemic eye vs. fellow normal eye) ([1]; 100 μM SAC, day 1 after I/R, vehicle 0.19±0.03): 0.64±0.04
ERG b-wave ratio (ischaemic eye vs. fellow normal eye) ([1]; 100 μM SAC, day 3 after I/R, vehicle 0.18±0.05): 0.79±0.03
ERG b-wave ratio (ischaemic eye vs. fellow normal eye) ([1]; 100 μM SAC, day 5 after I/R, vehicle 0.24±0.05): 0.84±0.03
ERG b-wave ratio (ischaemic eye vs. fellow normal eye) ([1]; 100 μM SAC, day 7 after I/R, vehicle 0.18±0.02): 0.84±0.04
pre-ischaemia b-wave ratio baseline (day 0) ([1]; group pre-treated with 25 μM SAC): 1.08±0.07
pre-ischaemia b-wave ratio baseline (day 0) ([1]; group pre-treated with 50 μM SAC): 0.98±0.04
pre-ischaemia b-wave ratio baseline (day 0) ([1]; group pre-treated with 100 μM SAC): 0.92±0.04
b-wave amplitude (ratio) of the non-ischemic (normal) eye vs. the fellow normal eye ([2]; day 0): 1.11±0.05
b-wave amplitude (ratio) of the non-ischemic (normal) eye vs. the fellow normal eye ([2]; day 1): 1.05±0.06
b-wave amplitude (ratio) of the non-ischemic (normal) eye vs. the fellow normal eye ([2]; day 5): 1.06±0.12
b-wave amplitude (ratio) of the non-ischemic (normal) eye vs. the fellow normal eye ([2]; day 7): 0.91±0.09
adverse effect on the b-wave amplitude (ratio) of the non-ischemic (normal) eye ([2]; days 0 to 7): no significant adverse effect
Thy-1:β-actin mRNA ratio in the retina (Thy-1 mRNA): 1.25±0.30
HIF-1 Alpha mRNA ratio in the retina (HIF-1 Alpha mRNA): 0.76±0.09
VEGF mRNA ratio in the retina (VEGF mRNA): 0.50±0.06
